According to patent US4681940A, “5-[3-[[2-quinolyl]methoxy]phenyl]-1,3-oxazoles” (American Home Products Corporation, priority 1985, dated 1987):
Structures can show the parent of a compound that is named as a salt.

Assays:
[1] = system: synthesis of 5-HETE by rat glycogen elicited polymorphonuclear leukocytes; assay: Inhibition of 5-HETE synthesis by rat glycogen-elicited polymorphonuclear leukocytes; format: cell-based, rat (female Wistar); details: rat PMN
Description: The assay of this Example measures the ability of the compounds of the invention to inhibit the synthesis of 5 -HETE by rat glycogen elicited polymorphonuclear leukocytes.
(§1) The assay is carried out as follows:
Peritoneal PMN are obtained from female Wistar rats (150-250 g) that received an i.p. injection of 6% glycogen (10 ml). After 24 hours, rats are killed by CO2 asphyxiation and peritoneal cells are harvested by peritoneal lavage using Ca^++ and Mg^++ free Hanks' balanced salt solution (HBSS). The peritoneal exudate is centrifuged at 400 g for 10 minutes. After centrifugation, the lavaged fluid is removed and the cell pellet is resuspended in HBSS containing Ca^++ and Mg^++ and 10 mM L-cysteine at a concentration of 2×10^7 cells/ml. To 1 ml portions of cell suspension, test drugs or vehicle are added and incubated at 37° C. for 10 minutes. Following this preincubation, the calcium ionophore (10 μM), A23187, is added together with 0.5 μCi [^14 C] arachidonic acid and further incubated for 10 minutes. The reaction is stopped by the addition of ice cold water (3 ml) and acidifying to pH 3.5. Lipoxygenase products are then extracted twice into diethyl ether. The pooled ether extracts are evaporated to dryness under nitrogen and the residue is redissolved in a small volume of methanol and spotted on aluminum backed pre-coated thin layer chromatographic plates. The samples are then co-chromatographed with authentic reference 5-HETE in the solvent system--hexane:ether:acetic acid (50:50:3). After chromatography, the areas associated with 5-HETE standard are identified by autoradiography, cut out and quantitated by liquid scintillation.
The compounds of this invention are tested in this assay at a level of 50 μm, unless otherwise noted. The results are summarized in Table 1, where those compounds having an inhibition of >50% are designated by a "+". Some results are expressed as an IC50 value.

[2] = system: LTD4 induced bronchoconstriction; assay: In vivo inhibition of bronchospasm induced in guinea pigs by exogenously administered leukotrienes C4 and/or D4; design: species or system guinea pig (male Hartley); details: 10 minutes before induction of bronchospasm
Description: The assay of this Example measures the in vivo ability of the compounds of the invention to inhibit the bronchospasm induced in guinea pigs by the exogenously administered leukotrienes C4 and/or D4.
This assay is carried out as follows:
Male Hartley strain guinea pigs (350-600 g) are anesthetized with pentobarbital sodium (50 mg/kg, i.p.). The jugular vein is cannulated for injection of drugs and the carotid artery for monitoring blood pressure. The trachea is cannulated for artificial ventilation by a miniature Starling pump and for indirect measurement of respiratory volume changes as described infra. The animals are then pretreated with succinylcholine (2 mg/kg i.v.) and indomethacin (10 mg/kg i.v. in trizma 8.3 buffer, 9 minutes prior to leukotriene challenge). Submaximal bronchoconstrictor responses are established in control animals by varying the dose-levels of leukotriene. Intravenous dose-levels for LTC4 range from 0.4 to 0.6 μg/kg and for LTD4 the range is from 0.3 to 0.5 μg/kg. The aerosol bronchoprovocation dose for LTC4 is generated from 1.6 μM solution and for LTD4 from a 2.0 μM solution.
Test drugs (dissolved in a solvent such as propylene glycol, polyethylene glycol 400 or saline) are administered either intraduodenally, by aerosol or intragastrically at 2 or 10 minutes before induction of bronchospasm by administration of either LTC4 or LTD4 at the predetermined dose-levels. Aerosols of soluble drugs or leukotrienes are produced in-line for 10 seconds only by actuation of an ultrasonic nebulizer (Monaghan). Aerosolized drug dosage is expressed in terms of solution concentration and by a fixed aerosol exposure time (approximately 10 seconds). Control animals receive solvent (2 ml/kg i.d. or appropriate aerosol) in place of drug.
(§2) Respiratory volume changes are determined by a calibrated piston whose travel is recorded, via a linear transducer, on a Beckman Dynograph recorder. Maximal bronchoconstrictor volume is determined by clamping off the trachea at the end of the experiment. Overflow volumes at 1, 3 and 5 minutes are obtained from the recorded charts.
Area under the volume overflow curve (AUC) is estimated, using the overflow values at 1, 3 and 5 minutes, and expressed as a percentage of the maximal overflow AUC (equation 1): [formula] Drug effects are reported as percent inhibition of % max AUC values obtained from appropriate control animals (equation 2): [formula]
Student's t-test for unpaired data is used to determine statistical significance (p<0.05). IC50 values can also be determined by inverse prediction from linear regression lines through points between 10 and 90% inhibition.

[3] = system: ovalbumin induced bronchospasm; assay: In vivo inhibition of ovalbumin-induced bronchospasm mediated by endogenous mediators in sensitized guinea pigs; design: species or system guinea pig (male Hartley); details: 50 mg/kg intraduodenal, 10 minutes before ovalbumin challenge
Description: The assay of this Example measures the in vivo ability of the compounds of the invention to inhibit the bronchospasm induced in guinea pigs by endogenous mediators of the bronchoconstriction.
as §1
Male Hartley strain guinea pigs weighing 250-350 g are sensitized to chicken ovalbumin (OA) (10 mg i.p.) on days 1 and 3 and used starting on day 26. The animals are anesthetized with pentobarbital sodium (50 mg/kg, i.p.), bilateral vagotomy is performed, and the jugular vein is cannulated for injection of drugs and the carotid artery for monitoring blood pressure. The trachea is cannulated for artificial ventilation by miniature Starling pump and for indirect measurement of respiratory volume changes as described, infra. Succinylcholine (2 mg/kg, i.v.) is administered to arrest spontaneous respiration. […]
as §2, with “volumes at minutes 1, 3” for “volumes at 1, 3”, “and 5 are obtained” for “and 5 minutes are obtained”
Area under the volume overflow curve (AUC) is estimated, using the overflow values at 1, 3 and 5 minutes, and expressed as a percentage of the maximal overflow AUC (equation 1): [formula] […]

CN1CC(c2cccc(OCc3ccc4ccccc4n3)c2)OC1=S (stereo not drawn) [Example 2, 5-[3-[(2-Quinolinyl)methoxy]phenyl]-3-methyl-2-thiaoxazolidone]
>50% Inhibitory at 50 μm [1]: + (inhibition of >50%)

CN1CC(c2cccc(OCc3nc4ccccc4n3C)c2)OC1=O (stereo not drawn) [Example 4, 5-[3-[(1-Methyl-2-benzimidazoyl)]methoxy]phenyl-3-methyl-2-oxazolidone]
% Inhibition ([2]; 50 mg/kg, intraduodenally): 65%

c1cc(OCc2ccc3ccccc3n2)cc(C2CN=C(c3cccs3)O2)c1 (stereo not drawn) [Example 7, 4,5-Dihydro-5-[3-[(2-quinolinyl)methoxy]phenyl]-2-(2-thienyl)-1,3-oxazole]
% Inhibition ([2]; 50 mg/kg, intraduodenally): 41%

CN1CC(c2cccc(OCc3ccc4ccccc4n3)c2)OC1=O (stereo not drawn) [1 (as free base), 5-[3-[(2-Quinolinyl)methoxy]phenyl]-3-methyl-2-oxazolidone]
% Inhibition of Max AUC [3]: 69%

CCC1=NCC(c2cccc(OCc3ccc4ccccc4n3)c2)O1 (stereo not drawn) [Example 5, 2-Ethyl-4,5-dihydro-5-[3-[(2-quinolinyl)methoxy]phenyl]-1,3-oxazole]
% Inhibition ([2]; 25 mg/kg, intraduodenally): 77%

CN1C[C@H](c2cccc(OCc3ccc4ccccc4n3)c2)OC1=O [Example 1 (as free base, S-enantiomer), 5-[3-[(2-Quinolinyl)methoxy]phenyl]-3-methyl-2-oxazolidone]
% Inhibition ([2]; 50 mg/kg, intraduodenally): 99%

CN1C[C@@H](c2cccc(OCc3ccc4ccccc4n3)c2)OC1=O [Example 1, 5-[3-[(2-Quinolinyl)methoxy]phenyl]-3-methyl-2-oxazolidone]
IC50 ([1]; Leukocyte): 19.6 µM
>50% Inhibitory at 50 μm [1]: + (inhibition of >50%)

CN1CC(c2cccc(OCc3ccc4ccccc4n3)c2)OC1=O (stereo not drawn) [1 (as HCL salt), 5-[3-[(2-Quinolinyl)methoxy]phenyl]-3-methyl-2-oxazolidone]
% Inhibition ([2]; 50 mg/kg, intraduodenally): 65%
% Inhibition ([2]; 50 mg/kg, intragastrically): 46%

CCOC(=O)CC1=NCC(c2cccc(OCc3ccc4ccccc4n3)c2)O1 (stereo not drawn) [Example 8, 2-Ethoxycarbonylmethyl-4,5-dihydro-5-[3-[(2-quinolinyl)methoxy]phenyl]-1,3-oxazole]
% Inhibition ([2]; 25 mg/kg, intraduodenally): 72%

CN1C[C@@H](c2cccc(OCc3ccc4ccccc4n3)c2)OC1=O [Example 1 (as free base, R-enantiomer), 5-[3-[(2-Quinolinyl)methoxy]phenyl]-3-methyl-2-oxazolidone]
% Inhibition ([2]; 50 mg/kg, intraduodenally): 91%
% Inhibition ([2]; 50 mg/kg, intragastrically): 65%
ED50 ([2]; Cavia porcellus, 10 min, printed on the intraduodenal line, read-out: IC50 (the source's name)): 8.6 mg/kg

c1ccc(C2=NCC(c3cccc(OCc4ccc5ccccc5n4)c3)O2)nc1 (stereo not drawn) [Example 6, 4,5-Dihydro-5-[3-[(2-quinolinyl)methoxy]phenyl]-2-(2-pyridyl)-1,3-oxazole]
% Inhibition ([2]; 25 mg/kg, intraduodenally): 96%
